Laboratory results as given in EP4227307A1 (Genzyme Corporation, priority 2022, dated 2023).
Counter-ions that a name gives are not always drawn.

molecular target: T1, human recombinant 6His-Nterm SHP2 full-length (Thr2-Arg593) (Homo sapiens, UniProt Q06124); test: SHP2 Phosphatase Assay (DiFMUP fluorescence); format: biochemical; settings: SHP2 0.2 nM pre-incubated with 100 nM bi-phosphorylated activating peptide; compound 1000-0.05 nM, 30 min pre-incubation; DiFMUP 20 µM, 45 min, room temperature; 10-concentration dose-response
T1 construct: 6His-Nterm SHP2 full-length (Thr2-Arg593, R&D system); 6His (N); purchased R&D system
T1 sequence (Q06124 2-593): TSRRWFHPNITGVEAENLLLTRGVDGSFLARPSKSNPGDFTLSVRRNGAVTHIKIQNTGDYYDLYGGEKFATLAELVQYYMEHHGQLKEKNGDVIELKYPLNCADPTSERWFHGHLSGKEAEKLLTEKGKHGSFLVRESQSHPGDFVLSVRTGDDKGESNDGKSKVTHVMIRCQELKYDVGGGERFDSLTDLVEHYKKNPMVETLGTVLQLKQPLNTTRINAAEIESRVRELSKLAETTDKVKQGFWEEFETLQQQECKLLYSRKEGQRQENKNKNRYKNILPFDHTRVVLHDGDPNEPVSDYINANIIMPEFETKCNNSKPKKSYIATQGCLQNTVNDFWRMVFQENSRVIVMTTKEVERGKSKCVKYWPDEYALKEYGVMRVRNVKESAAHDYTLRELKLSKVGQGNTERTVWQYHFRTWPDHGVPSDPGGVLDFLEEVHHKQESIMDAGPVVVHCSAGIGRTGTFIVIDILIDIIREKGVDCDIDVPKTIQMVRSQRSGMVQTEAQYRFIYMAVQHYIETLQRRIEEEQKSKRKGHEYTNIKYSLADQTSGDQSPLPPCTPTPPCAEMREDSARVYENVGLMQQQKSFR
In short: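 SHP2 (0.2 nM) preactivated ≥10 min with 100 nM bis-phosphorylated peptide, then 30 min with compound (10 concentrations, 1000–0.05 nM) at room temperature, pH 7.2 HEPES buffer with DTT. DiFMUP (20 µM, added solution) reacted 45 min, pervanadate-stopped; fluorescence 350/450 nm. IC50 by 4-parameter logistic fit.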

IC50 [nM] | Compound
7 | Cc1nc(N2CCC3(CC2)Cc2ncccc2[C@H]3N)c2ccnn2c1-c1ccc2c(c1)CCO2 [Compound 188, (5S)-1'-[7-(2,3-dihydrobenzofuran-5-yl)-6-methyl-pyrazolo[1,5-a]pyrazin-4-yl]spiro[5,7-dihydrocyclopenta[b]pyridine-6,4'-piperidine]-5-amine]
> 1000 | Cc1nc(N2CCC3(CC2)Oc2ncccc2[C@H]3N)c2ccnn2c1-c1cccc(F)c1C(F)(F)F [Compound 129, (3R)-1'-[7-[3-fluoro-2-(trifluoromethyl)phenyl]-6-methyl-pyrazolo[1,5-a]pyrazin-4-yl]spiro[3H-furo[2,3-b]pyridine-2,4'-piperidine]-3-amine]
2 | Cc1ccc(-c2c(C)nc(N3CCC4(CC3)Cc3ncccc3[C@H]4N)c3ccnn23)c(F)c1 [Compound 186, (5S)-1'-[7-(2-fluoro-4-methyl-phenyl)-6-methyl-pyrazolo[1,5-a]pyrazin-4-yl]spiro[5,7-dihydrocyclopenta[b]pyridine-6,4'-piperidine]-5-amine]
21 | Cc1nc(N2CCC3(CC2)Cc2ncc(C#N)cc2[C@H]3N)c2ccnn2c1-c1ccccc1F [Compound 209, (5S)-5-amino-1'-[7-(2-fluorophenyl)-6-methyl-pyrazolo[1,5-a]pyrazin-4-yl]spiro[5,7-dihydrocyclopenta[b]pyridine-6,4'-piperidine]-3-carbonitrile]
40 | Cc1nc(N2CCC3(CC2)Oc2ncccc2[C@H]3N)c2ccnn2c1-c1cccc(F)c1Cl [Compound 14, (3R)-1'-[7-(2-chloro-3-fluorophenyl)-6-methyl-pyrazolo [1 ,5-a]pyrazin-4-yl]spiro[3H-furo[2,3-b]pyridine-2,4'-piperidine]-3-amine]
370 | Cc1nc(N2CCC3(CC2)Cc2ncccc2[C@H]3N)c2ccnn2c1-c1cncnc1 [Compound 165, (5S)-1'-(6-methyl-7-pyrimidin-5-yl-pyrazolo[1,5-a]pyrazin-4-yl)spiro[5,7-dihydrocyclopenta[b]pyridine-6,4'-piperidine]-5-amine]
12 | COc1cc2c(cn1)CC1(CCN(c3nc(C)c(-c4ccccc4)n4nccc34)CC1)[C@@H]2N [Compound 135, (5S)-3-methoxy-1'-(6-methyl-7-phenyl-pyrazolo[1,5-a]pyrazin-4-yl)spiro[5,7-dihydrocyclopenta[c]pyridine-6,4'-piperidine]-5-amine]
17 | COc1ccc2c(c1)CC1(CCN(c3nc(C)c(-c4cnn(C)c4C)n4nccc34)CC1)[C@@H]2N [Compound 62, (1S)-1'-[7-(1,5-dimethylpyrazol-4-yl)-6-methyl-pyrazolo[1,5-a]pyrazin-4-yl]-5-methoxy-spiro[indane-2,4'-piperidine]-1-amine]
> 1000 | COCc1cnn2c(-c3ccccc3F)c(C)nc(N3CCC4(CC3)Cc3ncccc3[C@H]4N)c12 [Compound 225, (5S)-1'-[7-(2-fluorophenyl)-3-(methoxymethyl)-6-methyl-pyrazolo[1,5-a]pyrazin-4-yl]spiro[5,7-dihydrocyclopenta[b]pyridine-6,4'-piperidine]-5-amine]
11 | COc1cccc2c1CC1(CCN(c3nc(C)c(-c4ccnc(C)c4Cl)n4nccc34)CC1)[C@@H]2N [Compound 110, (1S)-1'-[7-(3-chloro-2-methyl-4-pyridyl)-6-methyl-pyrazolo[1,5-a]pyrazin-4-yl]-4-methoxy-spiro[indane-2,4'-piperidine]-1-amine]
6 | COc1cccc(-c2c(C)nc(N3CCC4(CC3)Cc3ncccc3[C@H]4N)c3ccnn23)c1 [Compound 32, (5S)-1'-[7-(3-methoxyphenyl)-6-methyl-pyrazolo[1,5-a]pyrazin-4-yl]spiro[5,7-dihydrocyclopenta[b]pyridine-6,4'-piperidine]-5-amine]
102 | Cc1nc(N2CCC3(CC2)Oc2ccccc2[C@H]3N)c2ccnn2c1-c1cccc(Cl)c1Cl [Compound 19, (3R)-1'-[7-(2,3-dichlorophenyl)-6-methyl-pyrazolo [1 ,5-a]pyrazin-4-yl]spiro[3H-benzofuran-2,4'-piperidine]-3-amine]

The next lines start with the molecule.

Compound | IC50 [nM]
N[C@@H]1c2cccnc2CC12CCN(c1ncc(-c3cnn4ccccc34)n3nccc13)CC2 [Compound 90, (5S)-1'-(7-pyrazolo[1,5-a]pyridin-3-ylpyrazolo[1,5-a]pyrazin-4-yl)spiro [5,7-dihydrocyclopenta[b]pyridine-6,4'-piperidine] -5-amine hydrochloride] | 13
Cc1nc(N2CCC3(CC2)Cc2ncccc2[C@H]3N)c2ccnn2c1-c1ccnnc1 [Compound 159, (5S)-1'-(6-methyl-7-pyridazin-4-yl-pyrazolo[1,5-a]pyrazin-4-yl)spiro[5,7-dihydrocyclopenta[b]pyridine-6,4'-piperidine]-5-amine hydrochloride] | 649
Cc1nc2c(s1)[C@@H](N)C1(CCN(c3nc(C)c(-c4ccccc4F)n4nccc34)CC1)C2 [Compound 83, (6S)-1'-[7-(2-fluorophenyl)-6-methyl-pyrazolo[1,5-a]pyrazin-4-yl]-2-methyl-spiro[4,6-dihydrocyclopenta[d]thiazole-5,4'-piperidine]-6-amine hydrochloride] | 10
Cc1nc(N2CCC3(CC2)Cc2ncccc2[C@H]3N)c2ccnn2c1-c1ccn(C)c(=O)c1F [Compound 228, 4-[4-[(5S)-5-aminospiro[5,7-dihydrocyclopenta[b]pyridine-6,4'-piperidine]-1'-yl]-6-methyl-pyrazolo[1,5-a]pyrazin-7-yl]-3-fluoro-1-methyl-pyridin-2-one] | 86
Cc1nc(N2CCC3(CC2)Cc2ncccc2[C@H]3N)c2ccnn2c1-c1ccc(N(C)C)nc1 [Compound 176, (5S)-1'-[7-[6-(dimethylamino)-3-pyridyl]-6-methyl-pyrazolo [1 ,5-a]pyrazin-4-yl]spiro[5,7-dihydrocyclopenta[b]pyridine-6,4'-piperidine]-5-amine] | 6
COc1cccc2c1CC1(CCN(c3nc(C)c(-c4cnn(C)c4C)n4nccc34)CC1)[C@@H]2N [Compound 111, (1S)-1-[7-(1,5-dimethylpyrazol-4-yl)-6-methyl-pyrazolo[1,5-a]pyrazin-4-yl] -4-methoxy-spiro[indane-2,4'-piperidine]-1-amine] | 16
Cc1nc(N2CCC3(CC2)Cc2ncccc2[C@H]3N)c2ccnn2c1-c1ccc2scnc2c1 [Compound 170, (5S)-1'-[7-(1,3-benzothiazol-5-yl)-6-methyl-pyrazolo[1,5-a]pyrazin-4-yl]spiro[5,7-dihydrocyclopenta[b]pyridine-6,4'-piperidine]-5-amine] | 11
COc1ccc2c(c1)[C@@H](N)C1(CCN(c3nc(C)c(-c4ccnc(C)c4F)n4nccc34)CC1)C2 [Compound 118, (1S)-1'-[7-(3-fluoro-2-methyl-4-pyridyl)-6-methyl-pyrazolo[1,5-a]pyrazin-4-yl]-6-methoxy-spiro [indane-2,4'-piperidine]-1-amine hydrochloride] | 4
Cc1nc(N2CCC3(CC2)Cc2ncccc2[C@H]3N)c2ccnn2c1-c1ccc(F)cc1F [Compound 193, (5S)-1'-[7-(2,4-difluorophenyl)-6-methyl-pyrazolo[1,5-a]pyrazin-4-yl]spiro[5,7-dihydrocyclopenta[b]pyridine-6,4'-piperidine]-5-amine] | 3
Cc1nc(N2CCC3(CC2)Cc2ncccc2[C@H]3N)c2c(F)cnn2c1-c1ccccc1 [Compound 143, (5S)-1'-(3-fluoro-6-methyl-7-phenyl-pyrazolo[1,5-a]pyrazin-4-yl)spiro[5,7-dihydrocyclopenta[b]pyridine-6,4'-piperidine]-5-amine hydrochloride] | 39
N[C@@H]1c2cccnc2CC12CCN(c1ncc(-c3cccc(F)c3F)n3nccc13)CC2 [Compound 26, (5S)-1'-[7-(2,3-difluorophenyl)pyrazolo[1,5-a]pyrazin-4-yl]spiro[5,7-dihydrocyclopenta[b]pyridine-6,4'-piperidine] -5-amine formate] | 23
Cc1nc(N2CCC3(CC2)Cc2ncccc2[C@H]3N)c2ccnn2c1-c1cc(F)ccc1F [Compound 195, (5S)-1'-[7-(2,5-difluorophenyl)-6-methyl-pyrazolo[1,5-a]pyrazin-4-yl]spiro[5,7-dihydrocyclopenta[b]pyridine-6,4'-piperidine]-5-amine] | 4
